In patent US9090576B2, “2-substituted-p-quinone derivatives for treatment of oxidative stress diseases” (Edison Pharmaceuticals, Inc., priority 2008, dated 2015):
pEC50: −log10 of the molar value.

Key:
Format in all cases: cell-based
[1] = test system: Human dermal fibroblasts from Friedreich's Ataxia patients; assay: Rescue of BSO-stressed FRDA fibroblasts (Calcein AM viability); conditions: BSO-stressed FRDA fibroblasts (GM04078), less than about 150 nM, read-out: EC50, protection against FRDA
Method: An initial screen was performed to identify compounds effective for the amelioration of redox disorders. Test samples, 4 reference compounds (Idebenone, decylubiquinone, Trolox and α-tocopherol acetate), and solvent controls were tested for their ability to rescue FRDA fibroblasts stressed by addition of L-buthionine-(S,R)-sulfoximine (BSO), as described in Jauslin et al., Hum. Mol. Genet. 11(24):3055 (2002), Jauslin et al., FASEB J. 17:1972-4 (2003), and International Patent Application WO 2004/003565. […] This specific BSO-mediated cell death can be prevented by administration of antioxidants or molecules involved in the antioxidant pathway, such as α-tocopherol, selenium, or small molecule glutathione peroxidase mimetics. However, antioxidants differ in their potency, i.e. the concentration at which they are able to rescue BSO-stressed FRDA fibroblasts.
MEM (a medium enriched in amino acids and vitamins, catalog no. 1-31F24-I) and Medium 199 (M199, catalog no. 1-21F22-I) with Earle's Balanced Salts, without phenol red, were purchased from Bioconcept. Fetal Calf Serum was obtained from PAA Laboratories. Basic fibroblast growth factor and epidermal growth factor were purchased from PeproTech. Penicillin-streptomycin-glutamine mix, L-buthionine (S,R)-sulfoximine, (+)-α-tocopherol acetate, decylubiquinone, and insulin from bovine pancreas were purchased from Sigma. Trolox (6-hydroxy-2,5,7,8-tetramethylchromane-2-carboxylic acid) was obtained from Fluka. Idebenone was obtained from Chemo Iberica. Calcein AM was purchased from Molecular Probes. Cell culture medium was made by combining 125 ml M199 EBS, 50 ml Fetal Calf Serum, 100 U/ml penicillin, 100 μg/ml streptomycin, 2 mM glutamine, 10 μg/ml insulin, 10 ng/ml EGF, and 10 ng/ml bFGF; MEM EBS was added to make the volume up to 500 ml. A 10 mM BSO solution was prepared by dissolving 444 mg BSO in 200 ml of medium with subsequent filter-sterilization. During the course of the experiments, this solution was stored at +4° C. The cells were obtained from the Coriell Cell Repositories (Camden, N.J.; repository number GM04078) and grown in 10 cm tissue culture plates. Every third day, they were split at a 1:3 ratio.
The test samples were supplied in 1.5 ml glass vials. The compounds were diluted with DMSO, ethanol or PBS to result in a 5 mM stock solution. Once dissolved, they were stored at −20° C. Reference antioxidants (Idebenone, decylubiquinone, α-tocopherol acetate and trolox) were dissolved in DMSO.
Test samples were screened according to the following protocol:
(§1) A culture with FRDA fibroblasts was started from a 1 ml vial with approximately 500,000 cells stored in liquid nitrogen. Cells were propagated in 10 cm cell culture dishes by splitting every third day in a ratio of 1:3 until nine plates were available. Once confluent, fibroblasts were harvested. For 54 micro titer plates (96 well-MTP) a total of 14.3 million cells (passage eight) were re-suspended in 480 ml medium, corresponding to 100 μl medium with 3,000 cells/well. The remaining cells were distributed in 10 cm cell culture plates (500,000 cells/plate) for propagation. The plates were incubated overnight at 37° C. in an atmosphere with 95% humidity and 5% CO2 to allow attachment of the cells to the culture plate.
(§2) MTP medium (243 μl) was added to a well of the microtiter plate. The test compounds were unfrozen, and 7.5 μl of a 5 mM stock solution was dissolved in the well containing 243 μl medium, resulting in a 150 μM master solution. Serial dilutions from the master solution were made. The period between the single dilution steps was kept as short as possible (generally less than 1 second).
Plates were kept overnight in the cell culture incubator. The next day, 10 μl of a 10 mM BSO solution were added to the wells, resulting in a 1 mM final BSO concentration. Forty-eight hours later, three plates were examined under a phase-contrast microscope to verify that the cells in the 0% control (wells E1-H1) were clearly dead. […]

[2] = test system: human dermal fibroblasts from Parkinson's Disease patients; assay: Rescue of BSO-stressed fibroblasts from Parkinson's Disease patients (screen as Example A); conditions: Fibroblast, BSO-stressed Parkinson's Disease fibroblasts (AG20439), less than about 150 nM, read-out: EC50, protection against PD
Method: as §1, §2
(§3) Plates were kept overnight in the cell culture incubator. The next day, 10 μl of a 10 mM BSO solution were added to the wells, resulting in a 1 mM final BSO concentration. Forty-eight hours later, three plates were examined under a phase-contrast microscope to verify that the cells in the 0% control (wells E1-H1) were clearly dead. The medium from all plates was discarded, and the remaining liquid was removed by gently tapping the plate inversed onto a paper towel.
(§4) 100 μl of PBS containing 1.2 μM Calcein AM were then added to each well. The plates were incubated for 50-70 minutes at room temperature. After that time the PBS was discarded, the plate gently tapped on a paper towel and fluorescence (excitation/emission wavelengths of 485 nm and 525 nm, respectively) was read on a Gemini fluorescence reader. Data was imported into Microsoft Excel (EXCEL is a registered trademark of Microsoft Corporation for a spreadsheet program) and used to calculate the EC50 concentration for each compound.
(§5) Compounds of the invention were screened as described in Example A, but substituting FRDA cells with Parkinson's Disease (PD) cells obtained from the Coriell Cell Repositories (Camden, N.J.; repository number AG20439). The compounds were tested for their ability to rescue human dermal fibroblasts from Parkinson's Disease patients from oxidative stress.

[3] = test system: human dermal fibroblasts from LHON patients; assay: Rescue of BSO-stressed fibroblasts from LHON patients (screen as Example A); conditions: Fibroblast, BSO-stressed LHON fibroblasts (GM03858), less than about 150 nM, read-out: EC50, protection against LHON
Method: as §1, §2, §3, §4
as §5, with “Leber's Hereditary Optic Neuropathy (LHON)” for “Parkinson's Disease (PD)”, “GM03858).” for “AG20439).”, “LHON” for “Parkinson's Disease”

[4] = test system: human dermal fibroblasts from Huntington's patients; assay: Rescue of BSO-stressed fibroblasts from Huntington's patients (screen as Example A); conditions: Fibroblast, BSO-stressed Huntington's fibroblasts (GM 04281), less than about 150 nM, read-out: EC50, protection against Huntington's
Method: as §1, §2, §3, §4
as §5, with “tested using the screen” for “screened”, “Huntington's” for “Parkinson's Disease (PD)”, “GM 04281).” for “AG20439).”, “Huntington's” for “Parkinson's Disease”

Measured: pEC50

CC1=C(CCNC(N)=O)C(=O)C(c2ccc(Cl)cc2)=C(C)C1=O [1-(2-(5-(4-chlorophenyl)-2,4-dimethyl-3,6-dioxocyclohexa-1,4-dienyl)ethyl)urea]
> 6.82: all assays above

CC1=C(C)C(=O)C(CCNC(=O)NCCN(C)C)=C(C)C1=O [1-(2-(dimethylamino)ethyl)-3-(2-(2,4,5-trimethyl-3,6-dioxocyclohexa-1,4-dienyl)ethyl)urea]
> 6.82: all assays above

CC1=C(C)C(=O)C(CCNC(=O)NCCO)=C(C)C1=O [1-(2-hydroxyethyl)-3-(2-(2,4,5-trimethyl-3,6-dioxocyclohexa-1,4-dienyl)ethyl)urea]
> 6.82: all assays above

CC1=C(C)C(=O)C(CCNC(=O)NCc2ccc(F)cc2)=C(C)C1=O [1-(4-Fluorobenzyl)-3-(2-(2,4,5-trimethyl-3,6-dioxocyclohexa-1,4-dienyl)ethyl)urea]
> 6.82: all assays above

CC1=C(C)C(=O)C(CCNC(=O)NCc2ccc(Cl)cc2)=C(C)C1=O [1-(4-chlorobenzyl)-3-(2-(2,4,5-trimethyl-3,6-dioxocyclohexa-1,4-dienyl)ethyl)urea]
> 6.82: all assays above

CC1=C(C)C(=O)C(CCNC(=O)NCc2cccnc2)=C(C)C1=O [1-(pyridin-3-ylmethyl)-3-(2-(2,4,5-trimethyl-3,6-dioxocyclohexa-1,4-dienyl)ethyl)urea]
> 6.82: all assays above

CC1=C(C)C(=O)C(CCNC(=O)NCc2ccncc2)=C(C)C1=O [1-(pyridin-4-ylmethyl)-3-(2-(2,4,5-trimethyl-3,6-dioxocyclohexa-1,4-dienyl)ethyl)urea]
> 6.82: all assays above

CC1=C(C)C(=O)C(CCNC(=O)Cc2ccc(Cl)cc2)=C(C)C1=O [2-(4-chlorophenyl)-N-(2-(2,4,5-trimethyl-3,6-dioxocyclohexa-1,4-dienyl)ethyl)acetamide]
> 6.82: all assays above

CC1=C(C)C(=O)C(CCNC(=O)Cc2ccc(F)cc2)=C(C)C1=O [2-(4-fluorophenyl)-N-(2-(2,4,5-trimethyl-3,6-dioxocyclohexa-1,4-dienyl)ethyl)acetamide]
> 6.82: all assays above

CC1=C(C)C(=O)C(CCC(C)C(=O)Nc2ccccn2)=C(C)C1=O (stereo not shown) [2-methyl-N-(pyridin-2-yl)-4-(2,4,5-trimethyl-3,6-dioxocyclohexa-1,4-dienyl)butanamide]
> 6.82: all assays above

CC1=C(C)C(=O)C(CCNC(=O)c2ccc(C(F)(F)F)cc2)=C(C)C1=O [4-(Trifluoromethyl)-N-(2-(2,4,5-trimethyl-3,6-dioxocyclohexa-1,4-dienyl)ethyl)benzamide]
> 6.82: [1] | [2] | [3]

CC1=C(C)C(=O)C(CCNC(=O)N2CCN(Cc3ccccc3)CC2)=C(C)C1=O [4-benzyl-N-(2-(2,4,5-trimethyl-3,6-dioxocyclohexa-1,4-dienyl)ethyl)piperazine-1-carboxamide]
> 6.82: all assays above

CC1=C(C)C(=O)C(CCNC(=O)c2ccc(Cl)cc2)=C(C)C1=O [4-chloro-N-(2-(2,4,5-trimethyl-3,6-dioxocyclohexa-1,4-dienyl)ethyl)benzamide]
> 6.82: [1] | [2] | [3]

CC1=C(C)C(=O)C(CCNC(=O)c2ccc(F)cc2)=C(C)C1=O [4-fluoro-N-(2-(2,4,5-trimethyl-3,6-dioxocyclohexa-1,4-dienyl)ethyl)benzamide]
> 6.82: [1] | [2] | [3]

CC1=C(C)C(=O)C(CCNS(=O)(=O)c2ccc(F)cc2)=C(C)C1=O [4-fluoro-N-(2-(2,4,5-trimethyl-3,6-dioxocyclohexa-1,4-dienyl)ethyl)benzenesulfonamide]
> 6.82: all assays above

COc1ccc(S(=O)(=O)NCCC2=C(C)C(=O)C(C)=C(C)C2=O)cc1 [4-methoxy-N-(2-(2,4,5-trimethyl-3,6-dioxocyclohexa-1,4-dienyl)ethyl)benzenesulfonamide]
> 6.82: all assays above

CC1=C(C)C(=O)C(CCCC(=O)NC(C)(C)CO)=C(C)C1=O [N-(1-hydroxy-2-methylpropan-2-yl)-4-(2,4,5-trimethyl-3,6-dioxocyclohexa-1,4-dienyl)butanamide]
> 6.82: [1] | [2]

CC1=C(C)C(=O)C(CCCC(=O)Nc2cccc(Cl)c2Cl)=C(C)C1=O [N-(2,3-dichlorophenyl)-4-(2,4,5-trimethyl-3,6-dioxocyclohexa-1,4-dienyl)butanamide]
> 6.82: all assays above

CC1=C(CCNS(=O)(=O)c2ccc(F)cc2)C(=O)C(c2ccc(Cl)cc2)=C(C)C1=O [N-(2-(5-(4-chlorophenyl)-2,4-dimethyl-3,6-dioxocyclohexa-1,4-dienyl)ethyl)-4-fluorobenzenesulfonamide]
> 6.82: [1] | [2] | [4]

CC1=C(C)C(=O)C(CCCC(=O)NCc2cccnc2)=C(C)C1=O [N-(pyridin-3-ylmethyl)-4-(2,4,5-trimethyl-3,6-dioxocyclohexa-1,4-dienyl)butanamide]
> 6.82: [1] | [3] | [4]
